The values that follow are results of earlier work, collected in US20190365934A1, “METHODS FOR IN VIVO MONITORING OF DO[…] AND EFFICACY OF TREATMENT AGENTS THEREFOR” (LIKEMINDS, INC., priority 2017, published 2019).

The conditions of the data set: background statement on FDA approved SPECT tracer.

On to `COC(=O)[C@H]1[C@@H](c2ccc([123I])cc2)C[C@@H]2CC[C@H]1N2CCCF` [[^123I]-FP-CIT, [^123I]-2β-carbomethoxy-3β-(4-iodophenyl)-N-(3-fluoropropyl) nortropane], for which the stable post-injection is 4 h.
